Measurements: PubChem BioAssay (NCI)
Values joined by “and” are separate entries in the source; they are usually repeats but may differ in a detail not shown here. Identical values can stand only once.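 1) Cells in 96-well plates. 2) Compound, 48 h, 5 concentrations. 3) Linear interpolation between surrounding doses. 4) Unreached endpoint = highest concentration. At the GI50, growth is halved. Definition used: TGI = concentration required for complete inhibition of growth.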

How the values were obtained:
Assay in all cases: growth of human tumour cells (NCI), 48 h
UACC-257 melanoma = system: UACC-257 melanoma
CAKI-1 renal = system: CAKI-1 renal
CCRF-CEM leukemia = system: CCRF-CEM leukemia
RXF 393 renal = system: RXF 393 renal
SNB-75 CNS = system: SNB-75 CNS
HS 578T breast = system: HS 578T breast
MALME-3M melanoma = system: MALME-3M melanoma
NCI/ADR-RES ovarian = system: NCI/ADR-RES ovarian
SF-295 CNS = system: SF-295 CNS
HL-60(TB) leukemia = system: HL-60(TB) leukemia

Row | SMILES | TGI (UACC-257 melanoma) | TGI (CAKI-1 renal) | TGI (CCRF-CEM leukemia) | TGI (RXF 393 renal) | TGI (SNB-75 CNS) | TGI (HS 578T breast) | TGI (MALME-3M melanoma) | TGI (NCI/ADR-RES ovarian) | TGI (SF-295 CNS) | TGI (HL-60(TB) leukemia) | GI50 (UACC-257 melanoma) | GI50 (CAKI-1 renal) | GI50 (CCRF-CEM leukemia) | GI50 (RXF 393 renal) | GI50 (SNB-75 CNS) | GI50 (HS 578T breast) | GI50 (MALME-3M melanoma) | GI50 (NCI/ADR-RES ovarian) | GI50 (SF-295 CNS) | GI50 (HL-60(TB) leukemia)
1 | NS(=O)(=O)c1ccc(NCc2cnc3ccccc3n2)cc1 | > 100 µM | > 100 µM | > 100 µM | > 100 µM | > 100 µM | > 100 µM | > 100 µM | > 100 µM | > 100 µM | > 100 µM | – | – | – | – | – | – | – | – | – | –
2 | Cc1cc2nc3ccc(=[N+](C)C)cc-3sc2cc1N | 3.78 µM and 5.85 µM and 10.1 µM | 12.8 µM and > 55.9 µM and 10.2 µM | – | 6.93 µM and 22.2 µM and 8.17 µM | 4.03 µM and 24.5 µM and 3.37 µM | – | 1.8 µM and 6.42 µM and 0.782 µM | 3.61 µM and 7.98 µM and 1.49 µM | 5.27 µM and 14.5 µM and 4.83 µM | – | 0.501 µM and 1.95 µM | 2.3 µM and 1.56 µM | 0.279 µM and 0.31 µM | 1.7 µM and 1.94 µM | 1.43 µM and 1.34 µM | 1.49 µM and 0.311 µM | 0.384 µM and 0.223 µM | 0.272 µM and 0.265 µM | 0.473 µM and 0.554 µM | 0.214 µM and 0.181 µM
3 | Cc1ccc(/C=C/C(=N/N=C(N)N)c2ccccc2)cc1 | 12.9 µM | 25.1 µM | 18.9 µM | 4.03 µM | 7.41 µM | 5.14 µM | 20.2 µM | 12 µM | 13.1 µM | 4.75 µM | 2.96 µM | 8.97 µM | 2.34 µM | 1.62 µM | 2.04 µM | 1.56 µM | 3.8 µM | 3.14 µM | 2.99 µM | 2.28 µM
4 | COc1cc(/C=C2\Oc3cc(OCCCN4CCCC4)ccc3C2=O)cc(OC)c1 | 17 µM | 16.4 µM | 10.4 µM | 12.3 µM | 22.9 µM | 25.6 µM | 4.26 µM | 21.6 µM | 10.6 µM | 6.66 µM | 4.54 µM | 3.54 µM | 2.76 µM | 3.02 µM | 11 µM | 5.15 µM | 1.77 µM | 6.17 µM | 2.88 µM | 2.6 µM
5 | CCCCCCCCCCCCCCCC(=O)N[C@H](/C=C/[C@H](O)CCCCCCCCCCCCC)CO | > 100 µM | – | > 100 µM | > 100 µM | > 100 µM | > 100 µM | > 100 µM | > 100 µM | > 100 µM | > 100 µM | > 100 µM | – | > 100 µM | > 100 µM | > 100 µM | > 100 µM | > 100 µM | > 100 µM | > 100 µM | > 100 µM
6 | O=S1(=O)NC2CCC3NS(=O)(=O)NC4CCC(N1)N4S(=O)(=O)N23 (configuration not stated) | > 100 µM | > 100 µM | – | > 100 µM | > 100 µM | > 100 µM | > 100 µM | > 100 µM | > 100 µM | > 100 µM | – | – | – | – | – | – | – | – | – | –
7 | C[C@]12CC[C@H]3[C@@H](CCC4=CC(=O)CC[C@@]43C)[C@@H]1CC[C@@H]2C(=O)COS(=O)(=O)c1ccc(Br)cc1 | 31.9 µM | 19.7 µM | 3.01 µM | > 50.8 µM | 41.8 µM | 73.6 µM | 12.7 µM | > 100 µM | 47.3 µM | 21.9 µM | – | – | – | – | – | – | – | – | – | –
8 | CCOc1ccc2c(C)cc(=O)oc2c1 | > 100 µM | > 100 µM | > 100 µM | > 100 µM | > 100 µM | > 100 µM | > 100 µM | > 100 µM | > 100 µM | > 100 µM | – | – | – | – | – | – | – | – | – | –
9 | COc1cccc(-n2cc(-c3nc(Nc4cc(C)[nH]n4)c4ccccc4n3)nn2)c1 | 15 µM | 5.62 µM | 16.8 µM | 8.92 µM | 7.9 µM | 16.5 µM | 13.7 µM | 12.5 µM | 11 µM | 14.5 µM | 7.75 µM | 0.165 µM | 2.82 µM | 1.45 µM | 1.15 µM | 2.6 µM | 5.31 µM | 0.234 µM | 2.88 µM | 2.85 µM
10 | CCC(C)[C@H](NC(=O)NC(=O)NC(=O)CI)C(=O)OC (some centres not stated) | 25.8 µM | 2.78 µM | – | 15.2 µM | 26.1 µM | 73.5 µM | 4 µM | 60 µM | 28.9 µM | 3.4 µM | 12.6 µM | 1.41 µM | – | 4.51 µM | 10.3 µM | 23.5 µM | 1.89 µM | 21.2 µM | 15.2 µM | 1.6 µM
11 | COc1ccc(CNC(C)C(=O)O)cc1 (configuration not stated) | > 100 µM | > 100 µM | 65.5 µM | > 100 µM | > 100 µM | > 100 µM | > 100 µM | > 100 µM | > 100 µM | > 100 µM | – | – | – | – | – | – | – | – | – | –
12 | c1ccc(Nc2nc(-c3ccccn3)cs2)nc1 | 15.4 µM | 2.12 µM | > 29.6 µM | > 100 µM | > 100 µM | > 100 µM | 5.16 µM | 2.89 µM | 6.61 µM | 3.01 µM | 0.496 µM | 0.0992 µM | 0.259 µM | 1.98 µM | 3.03 µM | 2.91 µM | 0.156 µM | 0.103 µM | 0.297 µM | 0.392 µM
13 | CCCCCCC/C=C/[C@H]1O[C@]2(O)C(=O)C=C3C[C@@H](O[C@@H]4O[C@H](CO)[C@@H](O)C(O)[C@@H]4O)C[C@@H]3[C@H]2C=C1C (some centres not stated) | 7.59 µM | – | 4.9 µM | 2.62 µM | 5.93 µM | 28.3 µM | 10.3 µM | 14 µM | 8.79 µM | 4.05 µM | 2.98 µM | – | 1.04 µM | 0.82 µM | 1.24 µM | 5.5 µM | 4.8 µM | 1.26 µM | 3.87 µM | 0.812 µM
14 | CO[C@]12C=C/C(=C(/C(=O)OCc3cccnc3)C(=O)CCCCCCCC[C@@]3(OC)C=C/C(=C(/C(=O)OCc4cccnc4)C(=O)CCCCCCCC1)O3)O2 | 20.1 µM | > 50 µM | 7.8 µM | 1.7 µM | 4.05 µM | > 50 µM | 3.7 µM | > 50 µM | – | 4.25 µM | 2.01 µM | 1.89 µM | 0.741 µM | 0.915 µM | 1.18 µM | 2.08 µM | 1.11 µM | 1.56 µM | – | 1.37 µM
15 | COc1cc2oc(-c3ccc(O)cc3O)c(CC=C(C)C)c(=O)c2c(O)c1/C=C/C(C)C | 17.5 µM | – | 5.07 µM | 4.61 µM | 9.04 µM | 7.92 µM | 14.2 µM | 8.24 µM | 12.3 µM | 5.59 µM | – | – | – | – | – | – | – | – | – | –
